These are literature values, as cited in publication PMC10006169, “A phase I trial of LXS196, a protein kinase C (PKC) inhibitor, for metastatic uveal melanoma” (British Journal of Cancer, 2023).

This data set deals with skin-derived melanoma cell lines driven by mutant B-Raf or N-Ras. Details: method as in ref 18 = [18]; 18. Visser M, Papillon J, Fan J, Luzzio M, Michael W, Wang R, et al. NVP-LXS196, a novel PKC inhibitor for the treatment of uveal melanoma. Paper presented at: Abstracts of papers of the American Chem. The following applies: cited from earlier work.

Consider `CC1(N)CCN(c2cccnc2NC(=O)c2nc(-c3ncccc3C(F)(F)F)cnc2N)CC1` [LXS196], for which the Cellular activity entry is recorded as “no activity observed”.
